Experimental data taken from patent publication US8455544B2, “Synthetic triterpenoids and methods of use in the treatment of disease” (Reata Pharmaecuticals, Inc., priority 2008, dated 2013).

Legend:
[1] = tested on: cisplatin-induced renal toxicity; assay: Rat cisplatin-induced acute renal injury; type: in vivo
Method: FIGS. 2a-c—RTA 402 reduces cisplatin-induced renal toxicity. Rats were administered RTA 402 at 10 mg/kg or simply the vehicle (sesame oil) every day by oral gavage beginning on Day −1. On Day 0, the rats received an intravenous injection of cisplatin at 6 mg/kg. Blood samples were drawn on the indicated days and the levels of creatinine (FIG. 2a) and blood urea nitrogen (BUN) (FIG. 2b) were measured as markers of renal damage. A statistically significant difference was observed between the vehicle-treated and RTA 402-treated groups on Day 3 (creatinine) and Day 5 (creatinine and BUN). (FIG. 2c) Less damage to the proximal tubules is observed in RTA 402-treated animals compared to vehicle-treated animals.
In another model of acute renal injury, rats were injected intravenously with the antineoplastic agent cisplatin. In humans, nephrotoxicity is a dose-limiting side effect of treatment with cisplatin. Cisplatin-induced damage to the proximal tubules is thought to be mediated by increased inflammation, oxidative stress, and apoptosis (Yao et al., 2007). Rats treated with a single dose of cisplatin at 6 mg/kg developed renal insufficiency as measured by increased blood levels of creatinine and BUN.

[2] = Serum creatinine in toxicology study, monkeys; type: in vivo, cynomolgus monkeys; settings: oral, once daily for 28 days
Method: FIGS. 3a-d—RTA 402 reduces serum creatinine levels in monkeys, dogs, and rats. (FIG. 3a) Cynomolgus monkeys were administered RTA 402 orally at the indicated doses once daily for 28 days. The percent reduction of serum creatinine on Day 28 in RTA 402-treated monkeys relative to vehicle-treated control monkeys is shown. (FIG. 3b) RTA 402 was administered orally to beagle dogs at the indicated doses daily for three months. Control animals received vehicle (sesame oil). The percent change in serum creatinine at the three-month time point relative to baseline is shown. (FIG. 3c) Sprague-Dawley rats were administered RTA 402 orally at the indicated doses once daily for a period of one month. The percent reduction of serum creatinine at study completion in RTA 402-treated rats relative to vehicle-treated control rats is shown. (FIG. 3d) Sprague-Dawley rats were administered the amorphous form of RTA 402 orally at the indicated doses once daily for a period of three months. The percent reduction of serum creatinine at study completion in RTA 402-treated rats relative to vehicle-treated control rats is shown. […] For example, a reading of −15 on this axis indicates a 15% reduction in serum creatinine.
Serum creatinine has been measured in several animal species treated with RTA 402 in the course of toxicology studies. […]

[3] = tested on: circulating endothelial cells (CECs); assay: Circulating endothelial cells (CECs) and iNOS-positive CECs, Phase II study; type: in vivo, human
Text: The mean number of CECs in cells/mL is shown for intent-to-treat (ITT) and elevated baseline groups, both before and after the 28 day RTA treatment. The reduction for the Intent-to-treat group was approximately 20%, and the reduction in the elevated baseline group (>5 CECs/ml) was approximately 33%. The fraction of iNOS-positive CECs was reduced approximately 29%.
CECs were isolated from whole blood by using CD146 Ab (an antibody to the CD146 antigen that is expressed on endothelial cells and leukocytes). After CEC isolation, a FITC (fluorescein isothiocyanate) conjugated CD105 Ab (a specific antibody for endothelial cells) is used to identify CECs using the CellSearch™ system. A fluorescent conjugate of CD45 Ab was added to stain the leukocytes, and these were then gated out. For a general overview of this method, see Blann et al., (2005), which is incorporated herein by reference in its entirety. CEC samples were also assessed for the presence of iNOS by immunostaining.

[4] = tested on: patients with diabetic nephropathy; assay: Phase II clinical trial in patients with diabetic nephropathy (type 2 diabetes with CKD); type: in vivo, human
Method: Serum creatinine has also been measured in patients with chronic kidney disease (CKD) enrolled in an open label Phase II clinical trial of RTA 402. These patients received RTA 402 once daily at three dose levels, 25 mg, 75 mg and 150 mg, for a total of 28 days.
A primary outcome measure for this study is determining the effects of RTA 402 administered orally at the three dose strengths on the glomerular filtration rate (as estimated by the MDRD formula) in patients with diabetic nephropathy.
Secondary outcome measures include: (1) an evaluation of the safety and tolerability of oral RTA 402 administered orally at the three different doses, in this patient population; (2) an evaluation of the effects of RTA 402 administered orally at the three dose strengths on the serum creatinine level, creatinine clearance, and urine albumin/creatinine ratio in patients with diabetic nephropathy; (3) an evaluation of the effects of RTA 402 administered orally at the three dose strengths on hemoglobin A1c in all patients enrolled and on insulin response by the hyperinsulinemic euglycemic clamp test in patients enrolled at only one of the study centers; (4) an evaluation of the effects of RTA 402 at the three different doses on a panel of markers of inflammation, renal injury, oxidative stress, and endothelial cell dysfunction.
The patient population selected for this study all had type 2 diabetes with CKD. Most had been diagnosed with poor glycemic control for two decades. CKD was established through elevated serum creatinine (SCr) levels. Most of the patients had been diagnosed with cardiovascular disease (CVD) and most were receiving standard of care (SOC) treatment for diabetes, CKD and CVD, (e.g., insulin, ACEI/ARB, β-blocker, diuretic, and statin). The baseline demographic can be summarized as follows:
The patient inclusion criteria were as follows: (1) diagnosis of type 2 diabetes; (2) serum creatinine in women 1.3-3.0 mg/dL (115-265 μmol/L), inclusive, and in men 1.5-3.0 mg/dL (133-265 μmol/L), inclusive; (3) patient must agree to practice effective contraception; (4) patient must have a negative urine pregnancy test within 72 hours prior to the first dose of study medication; (5) patient is willing and able to cooperate with all aspects of the protocol and is able to communicate effectively; (6) patient is willing and able to provide written informed consent to participate in this clinical study. […]

RAW264.7 macrophages = assay: Cell viability, WST-1 reagent; type: cell-based; settings: Mus musculus, RAW264.7 (20 ng/ml IFNγ)
[5] = tested on: IFNγ-induced NO production in RAW264.7 macrophages; assay: Suppression of IFNγ-induced NO production (Griess reagent system); type: cell-based; settings: Mus musculus; RAW264.7, pre-treated 2 hours, then 20 ng/ml IFNγ for 24 hours
[6] = 10 mg/kg oral gavage daily from one day prior to cisplatin 6 mg/kg i.v.

In the case of `COC(=O)[C@]12CCC(C)(C)C[C@H]1[C@H]1C(=O)C=C3[C@@]4(C)C=C(C#N)C(=O)C(C)(C)[C@@H]4CC[C@@]3(C)[C@]1(C)CC2` [RTA 402, methyl-2-cyano-3,12-dioxooleana-1,9-dien-28-oic acid], the “Extent of proximal tubule damage (histological evaluation) compared to vehicle” value ([1]; 10 mg/kg oral gavage daily) is reported as “improvement”, the “Blood levels of BUN” value [1, 6] is reported as “significantly reduced” and the “Blood levels of creatinine” value [1, 6] is reported as “significantly reduced”. For the same compound, the “Serum creatinine levels relative to control animals” value [2] was “Significant reductions”, the “Reduction of mean number of CECs” value ([3]; 28 days, elevated baseline group (>5 CECs/ml)) was “approximately 33%” and the “Reduction in CECs” value ([3]; 28 days, elevated baseline group, n=14, p=0.02) was 40%. The “Reduction of the fraction of iNOS-positive CECs” value ([3]; 28 days, immunostaining) was “approximately 29%”, the “Reduction of mean number of CECs” value ([3]; 28 days, intent-to-treat group) was “approximately 20%” and the “Reduction in CECs” value ([3]; 28 days, intent-to-treat group, n=20) was 27%. For the same compound, the “Patients with a normal level for CECs post-treatment” value ([3]; of the elevated baseline group, n=14) was “nine”, the “Normalization of CEC values (≦5 cells/mL), patients” value ([3]; patients with elevated baseline) was 11 out of the 19 and the A1c reduction ([4]; 28 days, elevated baseline (≧7.0 at baseline), n=16) was 0.50. For the same compound, the “Hemoglobin % A1c reduction” value ([4]; 28 days, elevated baseline (≧7.0 at baseline), n=35) was 0.50 % A1c, the A1c reduction ([4]; 28 days, intent-to-treat, n=21, on top of standard of care) was 0.34 and the “Hemoglobin % A1c reduction” value ([4]; 28 days, intent-to-treat, n=56) was “approximately 0.25 % A1c”. The “GFR increase, response rate” value ([4]; 28 days, n=22) was 86%, the GFR improvement ([4]; 28 days, patients with Stage 4 renal disease) was > 30% and the “Mean % A1c reduction” value ([4]; 28 days, patients with advanced (Stage 4) renal disease (GFR 15-29 ml/min)) was “approximately 0.77 % A1c”. The “Eight measures of renal function and status” value ([4]; serum creatinine based eGFR, creatinine clearance, BUN, serum phosphorus, serum uric acid, Cystatin C, Adiponectin, Angiotensin II) was “improve significantly”, the IC50 (RAW264.7 macrophages) was 80 nM and the IC50 [5] was 2.2 nM.
